Data: patent publication US7423015B1, “Antihelminthic drugs as a treatment for hyperproliferative diseases” (Board of Regents, The University of Texas System, priority 2001, dated 2008)

What was measured:
H460 NSCLC cells = assay: Cell cycle profiles by FACS, MZ and vinorelbine; type: cell-based, human; settings: sub-therapeutic low dose
Procedure: FIG. 10. MZ Enhances activity of anti-mictotic drugs in H460 NSCLC cells. H460 cells were treated with low dose of MZ or Vinorelbine. Cell cycle profiles indicating G1/S G2-Mphases were analyzed by FACS.
The doses of MZ and vinorelbine were chosen to be “sub-therapeutic”. […] Thus, in H460 NSCLC cells mebendazole enhances the activity of anti-mitotic drugs.

[1] = tested on: A549 metastatic lung colonies; assay: Lung metastases in vivo after tail vein injection; parameters: species or system female nude mice; settings: paclitaxel alone, other experiments
Procedure: To establish lung metastases, female nude mice were injected intravenously via tail vein with 10^6 A549 tumor cells suspended in […] of sterile PBS. Six days later, mice were divided into two groups of 5 mice each and treated. Group 1 received no treatment and group 2 received the experimental MZ drug orally at 1 mg of drug (100 μl) twice a week for 3 weeks. After 3 weeks, animals were euthanized by CO2 inhalation. Lungs from each of the mice from the two groups were injected intra-tracheally with India ink and fixed in Feketes solution. The therapeutic effect of MZ treatment was determined by counting the number of metastatic tumors in each lung under a dissecting microscope without knowledge of the treatment groups. The experiments were performed three times and data analyzed and interpreted as statistically significant if the p value was <0.05 by the Mann-Whitney rank-sum test.
Next, the inventors asked whether treatment with MZ would inhibit the growth of human metastatic lung cancer cells in vivo. About 300 metastatic colonies appeared on untreated mice 21 days after A549 cell injection into the tail vein (FIG. 6). This technique was reproducible as the totals blindly counted by two investigators differed by less than 10%. This experiment was performed three times with similar results. The oral administration of […] MZ reduced mean colony count to 80% of the mean value for controls (P<0.0001).

Structure (SMILES) | apoptosis under monotherapy (H460 NSCLC cells) | colony formation [1]
CCC1=C[C@@H]2CN(C1)Cc1c([nH]c3ccccc13)[C@@](C(=O)OC)(c1cc3c(cc1OC)N(C)[C@H]1[C@@](O)(C(=O)OC)[C@H](OC(C)=O)[C@]4(CC)C=CCN5CC[C@]31[C@@H]54)C2 [Vinorelbine] | No apoptosis | –
CC(=O)O[C@H]1C(=O)[C@@]2(C)[C@H]([C@H](OC(=O)c3ccccc3)[C@]3(O)C[C@H](OC(=O)[C@H](O)[C@@H](NC(=O)c4ccccc4)c4ccccc4)C(C)=C1C3(C)C)[C@]1(OC(C)=O)CO[C@@H]1C[C@@H]2O [paclitaxel] | – | no significant reduction
